From article PMC11167047 (Cell Death Discovery, 2024)

Legend:
Test in all cases: kinome screen (33PanQinase)
Format in all cases: biochemical
CLK4 = molecular target: T1, CLK4 (Homo sapiens, UniProt Q9HAZ1)
T1 construct: purchased Reaction Biology Europe GmbH (formerly ProQinase)
Experimental: (§1) The Kinome Screening was performed by Reaction Biology Europe GmbH (http://reactionbiology.com; Freiburg i. Br., Germany).

CDK18/CycY = molecular target: T2, CDK18/CycY (Homo sapiens, UniProt Q07002)
T2 construct: purchased Reaction Biology Europe GmbH (formerly ProQinase)
Experimental: as §1

ACK1 = molecular target: T3, ACK1 (Homo sapiens, UniProt Q07912)
T3 construct: purchased Reaction Biology Europe GmbH (formerly ProQinase)
Experimental: as §1

CHK2 = molecular target: T4, CHK2 (Homo sapiens, UniProt O96017)
T4 construct: purchased Reaction Biology Europe GmbH (formerly ProQinase)
Experimental: as §1

ERBB2 = molecular target: T5, ERBB2 (Homo sapiens, UniProt P04626)
T5 construct: purchased Reaction Biology Europe GmbH (formerly ProQinase)
Experimental: as §1

CDK9/CycK = molecular target: T6, CDK9/CycK (Homo sapiens, UniProt P50750)
T6 construct: purchased Reaction Biology Europe GmbH (formerly ProQinase)
Experimental: as §1

PYK2 = molecular target: T7, PYK2 (Homo sapiens, UniProt Q14289)
T7 construct: purchased Reaction Biology Europe GmbH (formerly ProQinase)
Experimental: as §1

p38Δ = molecular target: T8, p38Δ (Homo sapiens, UniProt O15264)
T8 construct: purchased Reaction Biology Europe GmbH (formerly ProQinase)
T8 sequence (O15264 1-365): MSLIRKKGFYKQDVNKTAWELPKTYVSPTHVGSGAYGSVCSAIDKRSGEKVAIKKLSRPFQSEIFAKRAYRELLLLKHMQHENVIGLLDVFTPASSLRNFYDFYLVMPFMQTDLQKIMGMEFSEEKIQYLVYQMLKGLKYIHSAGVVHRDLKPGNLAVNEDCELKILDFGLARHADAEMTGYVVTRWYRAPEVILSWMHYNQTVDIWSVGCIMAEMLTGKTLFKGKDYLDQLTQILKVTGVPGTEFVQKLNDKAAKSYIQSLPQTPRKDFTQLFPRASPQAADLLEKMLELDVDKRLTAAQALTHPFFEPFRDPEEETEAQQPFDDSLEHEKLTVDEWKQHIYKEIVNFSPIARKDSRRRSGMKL
Experimental: as §1

STK39 = molecular target: T9, STK39 (Homo sapiens, UniProt Q9UEW8)
T9 construct: purchased Reaction Biology Europe GmbH (formerly ProQinase)
Experimental: as §1

ITK = molecular target: T10, ITK (Homo sapiens, UniProt Q08881)
T10 construct: purchased Reaction Biology Europe GmbH (formerly ProQinase)
T10 sequence (Q08881 1-620): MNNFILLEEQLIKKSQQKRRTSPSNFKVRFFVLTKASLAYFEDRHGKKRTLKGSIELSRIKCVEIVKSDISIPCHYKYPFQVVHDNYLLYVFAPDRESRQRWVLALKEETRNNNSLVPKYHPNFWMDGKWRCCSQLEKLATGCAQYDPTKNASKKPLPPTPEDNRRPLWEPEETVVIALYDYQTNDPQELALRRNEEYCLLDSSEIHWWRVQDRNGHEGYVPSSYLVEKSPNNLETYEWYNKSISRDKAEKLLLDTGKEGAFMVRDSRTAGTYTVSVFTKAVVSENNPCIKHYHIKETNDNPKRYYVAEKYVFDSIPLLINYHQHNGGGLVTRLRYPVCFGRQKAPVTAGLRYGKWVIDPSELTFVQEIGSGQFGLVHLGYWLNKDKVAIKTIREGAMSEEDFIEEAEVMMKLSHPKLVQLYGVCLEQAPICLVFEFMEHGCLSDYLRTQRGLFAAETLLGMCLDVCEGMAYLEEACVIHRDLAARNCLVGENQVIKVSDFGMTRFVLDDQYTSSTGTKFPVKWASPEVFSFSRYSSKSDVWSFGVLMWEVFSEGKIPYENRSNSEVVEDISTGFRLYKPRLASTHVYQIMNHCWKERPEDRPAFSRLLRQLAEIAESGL
Experimental: as §1

EPHA1 = molecular target: T11, EPHA1 (Homo sapiens, UniProt P21709)
T11 construct: purchased Reaction Biology Europe GmbH (formerly ProQinase)
T11 sequence (P21709 26-976): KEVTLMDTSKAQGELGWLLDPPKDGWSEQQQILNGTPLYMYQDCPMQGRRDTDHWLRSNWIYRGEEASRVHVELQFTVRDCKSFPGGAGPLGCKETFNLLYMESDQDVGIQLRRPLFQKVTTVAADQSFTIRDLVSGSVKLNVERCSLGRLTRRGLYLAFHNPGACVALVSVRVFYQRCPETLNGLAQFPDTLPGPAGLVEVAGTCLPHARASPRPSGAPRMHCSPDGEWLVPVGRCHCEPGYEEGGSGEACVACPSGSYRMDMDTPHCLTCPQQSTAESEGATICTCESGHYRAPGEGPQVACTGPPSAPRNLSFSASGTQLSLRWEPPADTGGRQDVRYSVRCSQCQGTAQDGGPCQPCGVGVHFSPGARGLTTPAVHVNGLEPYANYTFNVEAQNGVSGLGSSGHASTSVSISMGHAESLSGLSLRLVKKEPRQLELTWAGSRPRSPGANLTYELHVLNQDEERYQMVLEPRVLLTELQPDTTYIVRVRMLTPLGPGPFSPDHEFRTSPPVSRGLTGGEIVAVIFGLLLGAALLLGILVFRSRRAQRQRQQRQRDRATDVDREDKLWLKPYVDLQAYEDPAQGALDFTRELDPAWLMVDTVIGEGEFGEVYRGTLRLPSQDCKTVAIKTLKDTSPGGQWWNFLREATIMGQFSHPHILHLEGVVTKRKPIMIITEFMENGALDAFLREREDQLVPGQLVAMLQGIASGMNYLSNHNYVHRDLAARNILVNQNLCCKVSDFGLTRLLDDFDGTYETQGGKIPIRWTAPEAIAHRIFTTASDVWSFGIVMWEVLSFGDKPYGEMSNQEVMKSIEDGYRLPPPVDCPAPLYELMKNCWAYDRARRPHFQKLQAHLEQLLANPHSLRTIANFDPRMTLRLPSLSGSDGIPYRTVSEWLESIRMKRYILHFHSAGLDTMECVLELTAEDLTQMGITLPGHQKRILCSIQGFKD
Experimental: as §1

T4 sequence (O96017 whole entry): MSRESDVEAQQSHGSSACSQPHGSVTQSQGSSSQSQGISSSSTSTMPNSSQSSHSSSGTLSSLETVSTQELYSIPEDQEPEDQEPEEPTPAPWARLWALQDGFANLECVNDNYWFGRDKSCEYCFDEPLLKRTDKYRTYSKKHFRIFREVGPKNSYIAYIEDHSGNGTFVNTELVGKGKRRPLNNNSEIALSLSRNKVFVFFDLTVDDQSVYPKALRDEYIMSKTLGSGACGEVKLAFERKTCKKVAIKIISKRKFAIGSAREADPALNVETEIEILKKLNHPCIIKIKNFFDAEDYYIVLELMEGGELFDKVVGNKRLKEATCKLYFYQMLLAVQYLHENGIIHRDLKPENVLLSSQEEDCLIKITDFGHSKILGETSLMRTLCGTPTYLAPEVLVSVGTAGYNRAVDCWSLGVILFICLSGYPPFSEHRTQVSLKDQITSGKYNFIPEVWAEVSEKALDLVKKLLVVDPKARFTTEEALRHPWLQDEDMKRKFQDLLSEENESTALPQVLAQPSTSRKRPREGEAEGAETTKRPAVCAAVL
T1 sequence (Q9HAZ1 whole entry): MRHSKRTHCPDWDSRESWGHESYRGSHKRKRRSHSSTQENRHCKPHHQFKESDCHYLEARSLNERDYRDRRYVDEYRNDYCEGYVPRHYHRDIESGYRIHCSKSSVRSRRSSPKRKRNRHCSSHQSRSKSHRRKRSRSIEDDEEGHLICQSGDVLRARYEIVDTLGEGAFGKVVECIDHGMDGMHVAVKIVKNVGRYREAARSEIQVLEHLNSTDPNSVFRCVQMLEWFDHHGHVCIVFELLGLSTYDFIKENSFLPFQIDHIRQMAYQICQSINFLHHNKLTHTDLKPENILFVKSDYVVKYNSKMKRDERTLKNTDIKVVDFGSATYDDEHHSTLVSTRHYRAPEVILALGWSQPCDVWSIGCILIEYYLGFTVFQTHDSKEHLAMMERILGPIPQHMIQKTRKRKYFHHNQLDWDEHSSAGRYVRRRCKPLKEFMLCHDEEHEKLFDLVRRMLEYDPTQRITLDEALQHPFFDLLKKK
T6 sequence (P50750 whole entry): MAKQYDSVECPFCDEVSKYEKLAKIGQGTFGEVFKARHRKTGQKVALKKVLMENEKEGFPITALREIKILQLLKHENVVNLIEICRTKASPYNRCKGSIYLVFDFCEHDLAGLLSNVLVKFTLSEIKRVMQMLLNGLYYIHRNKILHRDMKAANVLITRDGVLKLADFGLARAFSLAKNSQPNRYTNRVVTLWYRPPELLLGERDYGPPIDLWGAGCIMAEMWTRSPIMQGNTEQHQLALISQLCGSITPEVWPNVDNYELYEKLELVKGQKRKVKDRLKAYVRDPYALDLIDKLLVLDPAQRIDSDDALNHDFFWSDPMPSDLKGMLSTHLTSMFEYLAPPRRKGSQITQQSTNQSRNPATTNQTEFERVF
T6 sequence (O75909 whole entry partner): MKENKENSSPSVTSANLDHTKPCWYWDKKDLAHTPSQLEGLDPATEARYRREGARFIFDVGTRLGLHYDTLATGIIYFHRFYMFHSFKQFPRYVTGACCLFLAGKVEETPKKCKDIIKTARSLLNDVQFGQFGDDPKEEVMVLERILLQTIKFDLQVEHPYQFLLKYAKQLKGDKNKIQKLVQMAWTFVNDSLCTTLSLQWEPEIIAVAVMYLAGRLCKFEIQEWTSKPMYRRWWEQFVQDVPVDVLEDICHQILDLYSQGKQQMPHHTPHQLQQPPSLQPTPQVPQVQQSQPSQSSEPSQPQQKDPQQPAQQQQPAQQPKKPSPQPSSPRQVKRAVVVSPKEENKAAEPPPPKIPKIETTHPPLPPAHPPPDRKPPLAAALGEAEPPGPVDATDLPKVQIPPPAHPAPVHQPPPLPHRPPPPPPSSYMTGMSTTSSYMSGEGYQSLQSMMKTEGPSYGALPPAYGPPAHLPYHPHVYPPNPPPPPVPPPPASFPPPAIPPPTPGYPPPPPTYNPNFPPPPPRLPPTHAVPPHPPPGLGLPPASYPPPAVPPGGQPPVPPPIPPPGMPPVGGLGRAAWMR
T3 sequence (Q07912 whole entry): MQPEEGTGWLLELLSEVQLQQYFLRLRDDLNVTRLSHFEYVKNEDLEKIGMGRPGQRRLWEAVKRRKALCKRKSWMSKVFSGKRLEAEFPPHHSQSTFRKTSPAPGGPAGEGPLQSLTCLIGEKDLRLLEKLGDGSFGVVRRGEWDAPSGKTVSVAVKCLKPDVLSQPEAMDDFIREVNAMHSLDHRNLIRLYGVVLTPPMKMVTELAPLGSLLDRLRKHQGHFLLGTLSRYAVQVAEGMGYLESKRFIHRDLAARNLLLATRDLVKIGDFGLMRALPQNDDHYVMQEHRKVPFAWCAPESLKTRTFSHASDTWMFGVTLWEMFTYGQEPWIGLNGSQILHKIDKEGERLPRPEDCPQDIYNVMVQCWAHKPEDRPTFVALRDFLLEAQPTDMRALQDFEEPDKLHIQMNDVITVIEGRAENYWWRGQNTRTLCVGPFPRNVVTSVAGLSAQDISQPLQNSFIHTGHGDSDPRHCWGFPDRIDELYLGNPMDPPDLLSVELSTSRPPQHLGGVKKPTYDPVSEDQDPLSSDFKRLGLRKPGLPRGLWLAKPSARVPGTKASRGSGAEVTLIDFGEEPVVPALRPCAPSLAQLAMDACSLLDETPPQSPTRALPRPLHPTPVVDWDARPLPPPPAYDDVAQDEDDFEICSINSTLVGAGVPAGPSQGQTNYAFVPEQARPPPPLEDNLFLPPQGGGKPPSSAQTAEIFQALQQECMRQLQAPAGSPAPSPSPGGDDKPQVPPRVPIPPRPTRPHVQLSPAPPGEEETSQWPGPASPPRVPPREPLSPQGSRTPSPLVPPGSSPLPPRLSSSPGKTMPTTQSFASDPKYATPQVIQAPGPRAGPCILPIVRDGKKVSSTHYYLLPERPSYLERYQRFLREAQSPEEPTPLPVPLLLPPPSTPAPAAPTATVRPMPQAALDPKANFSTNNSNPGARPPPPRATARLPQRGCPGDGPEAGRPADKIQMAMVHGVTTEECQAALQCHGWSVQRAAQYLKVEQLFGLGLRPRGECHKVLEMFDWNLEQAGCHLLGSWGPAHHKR
T2 sequence (Q07002 whole entry): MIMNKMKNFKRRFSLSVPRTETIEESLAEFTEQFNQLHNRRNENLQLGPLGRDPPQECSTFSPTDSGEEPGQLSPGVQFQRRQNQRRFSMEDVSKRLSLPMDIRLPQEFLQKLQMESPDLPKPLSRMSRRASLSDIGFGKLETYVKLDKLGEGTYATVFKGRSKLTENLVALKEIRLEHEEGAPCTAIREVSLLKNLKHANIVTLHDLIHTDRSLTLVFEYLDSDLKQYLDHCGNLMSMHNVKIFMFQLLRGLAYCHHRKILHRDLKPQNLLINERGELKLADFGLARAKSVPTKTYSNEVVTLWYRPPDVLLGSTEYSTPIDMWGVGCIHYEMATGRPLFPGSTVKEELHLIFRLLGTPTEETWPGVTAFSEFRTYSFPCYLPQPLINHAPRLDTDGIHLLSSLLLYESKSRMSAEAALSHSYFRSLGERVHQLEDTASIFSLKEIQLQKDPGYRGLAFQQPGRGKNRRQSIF
T2 sequence (Q8ND76 whole entry partner): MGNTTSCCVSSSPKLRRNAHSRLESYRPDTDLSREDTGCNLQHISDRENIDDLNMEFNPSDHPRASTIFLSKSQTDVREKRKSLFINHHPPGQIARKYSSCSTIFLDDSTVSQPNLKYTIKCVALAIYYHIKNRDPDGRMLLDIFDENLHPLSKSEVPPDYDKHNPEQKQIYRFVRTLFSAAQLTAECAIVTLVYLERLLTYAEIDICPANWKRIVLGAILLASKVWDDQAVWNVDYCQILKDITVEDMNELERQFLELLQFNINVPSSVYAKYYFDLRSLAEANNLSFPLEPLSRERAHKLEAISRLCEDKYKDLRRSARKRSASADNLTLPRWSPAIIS
T7 sequence (Q14289 whole entry): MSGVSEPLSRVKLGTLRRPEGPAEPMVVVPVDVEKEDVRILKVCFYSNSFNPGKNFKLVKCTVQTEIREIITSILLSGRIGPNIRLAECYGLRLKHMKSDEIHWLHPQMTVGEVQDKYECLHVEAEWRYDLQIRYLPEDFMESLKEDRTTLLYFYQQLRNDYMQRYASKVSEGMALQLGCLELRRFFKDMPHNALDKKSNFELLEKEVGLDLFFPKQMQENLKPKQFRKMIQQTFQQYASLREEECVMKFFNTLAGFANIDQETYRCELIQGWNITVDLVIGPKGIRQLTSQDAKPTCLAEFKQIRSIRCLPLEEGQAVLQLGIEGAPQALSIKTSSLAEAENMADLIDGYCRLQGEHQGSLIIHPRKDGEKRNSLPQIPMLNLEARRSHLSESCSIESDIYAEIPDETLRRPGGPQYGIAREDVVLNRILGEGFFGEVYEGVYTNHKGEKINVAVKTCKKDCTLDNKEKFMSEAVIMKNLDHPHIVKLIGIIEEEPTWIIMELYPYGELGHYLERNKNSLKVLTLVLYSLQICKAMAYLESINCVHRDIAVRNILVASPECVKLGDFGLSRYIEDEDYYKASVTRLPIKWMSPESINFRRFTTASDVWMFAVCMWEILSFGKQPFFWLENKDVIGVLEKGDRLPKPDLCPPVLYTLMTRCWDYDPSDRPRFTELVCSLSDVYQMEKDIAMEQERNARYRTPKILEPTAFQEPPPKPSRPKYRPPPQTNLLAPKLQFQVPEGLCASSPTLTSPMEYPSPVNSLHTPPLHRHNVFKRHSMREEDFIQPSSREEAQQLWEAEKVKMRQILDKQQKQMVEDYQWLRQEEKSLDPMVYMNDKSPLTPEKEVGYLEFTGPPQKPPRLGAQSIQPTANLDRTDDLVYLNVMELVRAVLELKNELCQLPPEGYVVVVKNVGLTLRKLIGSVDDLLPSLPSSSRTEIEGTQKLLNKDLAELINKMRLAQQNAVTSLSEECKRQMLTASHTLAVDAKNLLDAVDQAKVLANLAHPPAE

Row | Structure (SMILES) | residual kinase activity (CLK4; 0.3 µM) | residual kinase activity (CDK18/CycY; 0.3 µM) | residual kinase activity (ACK1; 0.3 µM) | residual kinase activity (CHK2; 0.3 µM) | residual kinase activity (ERBB2; 0.3 µM) | residual kinase activity (CDK9/CycK; 0.3 µM) | residual kinase activity (PYK2; 0.3 µM) | residual kinase activity (p38Δ; 0.3 µM) | residual kinase activity (STK39; 0.3 µM) | residual kinase activity (ITK; 0.3 µM) | residual kinase activity (EPHA1; 0.3 µM) | further results
1 | COc1ccnc2[nH]cc(-c3cc(N)nc(N)c3)c12 [meriolin 16] | 0 % of control | 5 % of control | 72 % of control | 82 % of control | 102 % of control | 0 % of control | 102 % of control | 24 % of control | 66 % of control | 88 % of control | 116 % of control | residual kinase activity (CLK4; 0.03 µM): 3 % of control; residual kinase activity (CDK18/CycY; 0.03 µM): 36 % of control; residual kinase activity (ACK1; 0.03 µM): 83 % of control; residual kinase activity (CHK2; 0.03 µM): 90 % of control; residual kinase activity (ERBB2; 0.03 µM): 102 % of control; residual kinase activity (CDK9/CycK; 0.03 µM): 7 % of control; residual kinase activity (PYK2; 0.03 µM): 117 % of control; residual kinase activity (p38Δ; 0.03 µM): 79 % of control; residual kinase activity (STK39; 0.03 µM): 77 % of control; residual kinase activity (ITK; 0.03 µM): 105 % of control; residual kinase activity (EPHA1; 0.03 µM): 128 % of control
2 | c1ccc(CNc2cc(-c3c[nH]c4ncccc34)ccn2)cc1 [meriolin 36] | 1 % of control | 6 % of control | 59 % of control | 81 % of control | 90 % of control | 2 % of control | 73 % of control | 59 % of control | 40 % of control | 77 % of control | 127 % of control | residual kinase activity (CLK4; 3 µM): 1 % of control; residual kinase activity (CDK18/CycY; 3 µM): 0 % of control; residual kinase activity (ACK1; 3 µM): 15 % of control; residual kinase activity (CHK2; 3 µM): 41 % of control; residual kinase activity (ERBB2; 3 µM): 44 % of control; residual kinase activity (CDK9/CycK; 3 µM): 0 % of control; residual kinase activity (PYK2; 3 µM): 24 % of control; residual kinase activity (p38Δ; 3 µM): 14 % of control; residual kinase activity (STK39; 3 µM): 19 % of control; residual kinase activity (ITK; 3 µM): 16 % of control; residual kinase activity (EPHA1; 3 µM): 126 % of control
